From paper PMC9745797 (2022)

Experiments:
[1] = test system: 5′-d(CGCATATATGCG)-3′ (DNA, duplex) CGCATATATGCG; assay: native nESI-MS; conditions: K+ 100 μM (KCl), NH4+ 150 mM; 150 mM ammonium acetate, pH 7, 1% DMSO; 9 μM DNA, 100 μM compound
[2] = test system: 5′-d(CGCATATATGCG)-3′ (DNA, duplex) CGCATATATGCG; assay: 1H NMR titration and NOESY; conditions: 50 mM phosphate pH 7.4, 9:1 H2O/D2O, 298 K (cooled to 274 K); 1 mM duplex; slow exchange

## Cn1cc(NC(=O)c2cc(NC(=O)c3ccc(/C=C/c4cnc5ccccc5c4)cc3)cn2C)cc1C(=O)NCCN1CCOCC1
[1]
  binding: yes
[2]
  binding: yes
